Experimental data reported in patent publication US12440466B2, “Fatty acid derivatives for treating non-alcoholic steatohepatitis” (BASF AS, priority 2017, dated 2025).
Marks after values point to notes of the source that are not given here.

Legend:
[1] = system: LX-2 human hepatic stellate cells; assay: LX-2 cell viability by MTS assay; type: cell-based; details: LX-2 cells; 24 hours; Compound A 10-75 μM, OA 75 μM
Protocol: (§1) Stellate cells are resident liver cells and the major cell type involved in the initiation and progression of liver fibrosis. In Biological Example 20, in vitro studies were performed on cultured human stellate cells (LX-2 cells) to assess direct effects of Compound A on these cells. Cells were treated for 24 hours with Compound A (10 μM, 25 μM, 50 μM, or 75 μM) or oleic acid (OA; 75 μM) and bromodeoxyuridine (BrdU) incorporation was assessed to determine effects on proliferation. A MTS (3-(4,5-dimethylthiazol-2-yl)-5-(3-carboxymethoxyphenyl)-2-(4-sulfophenyl)-2H-tetrazolium) assay was used to determine cell viability.
(§2) Cell proliferation of LX-2 human hepatic stellate cells treated for 24 hours with 10-75 μM of Compound A or oleic acid (OA) (75 μM) was assessed by BrdU incorporation. The results are normalised mean values ±S.E.M. of 5 independent experiments for icosabutate and 2 independent experiments for OA. […] The reduction in proliferation by Compound A was 25-34% at 24 hours whereas OA had no effect. The comparisons were made by one-way ANOVA with Dunnett's correction for multiple comparisons.

[2] = system: LX-2 human hepatic stellate cells; assay: LX-2 stellate cell proliferation by BrdU incorporation; type: cell-based; details: LX-2 cells; 24 hours; OA 75 μM
Protocol: as §1, §2

[3] = system: APOE*3Leiden.CETP mice; details: WO2016173923A1, cited from earlier work
[4] = system: APOE*3Leiden.CETP mice; assay: Hepatocellular hypertrophy grading in APOE*3Leiden.CETP double transgenic mice; type: in vivo, mouse; details: APOE*3Leiden.CETP mice on high fat/cholesterol diet; 0.3 mmol/kg bw per day by gavage; 20 weeks
Description: The APOE*3Leiden.CETP double transgenic mouse expresses a variant of the human apolipoprotein E3 (APOE3), the APOE*3Leiden, in addition to the human apolipoprotein C1 (APOC1) and CETP. […] By increasing the cholesterol content of the diet in this model, all the characteristics of human NASH develop.
In one study (using 1% cholesterol w/w), after a 3 weeks run-in period low-responder mice (20% of total) were removed from the study and the remaining mice were sub-divided into 4 groups of 12 mice each (+5 in the control group), matched for plasma cholesterol, triglycerides, blood glucose, body weight and age (t=0) and treatment was started. The mice received a daily gavage between 07hr00 and 10hr00 with either Compound A at 0.3 mmol/kg bw per day, the comparison compound Compound N (0.3 mmol/kg bw per day), rosiglitazone (13 mg/kg bw per day) or control (corn oil). After 20 weeks of treatment mice were sacrificed by CO2 asphyxiation, the liver was collected and the level of hepatocellular hypertrophy was graded.

[5] = system: CDAA/high-fat fed mice; assay: Hepatic hydroxyproline (HYP) content, CDAA/high-fat diet induced NASH mouse model; type: in vivo
Description: Mouse models that are deficient in methionine and/choline (MCD and CDAA respectively) are well established for studying the development and treatment of NASH in pre-clinical drug development. As precursors for the synthesis of phosphatidylcholine, a dietary deficiency of methionine/choline leads to an inability to synthesize hepatic lipoproteins for the export of triglyceride that results in severe hepatic steatosis, inflammation and fibrosis.
Although the widely used methionine-choline deficient (MCD) diet consistently reproduces severe NASH-like hepatic inflammation and fibrosis in mice, it is also associated with severe weight-loss (loss of both skeletal muscle and fat mass). This is associated with an increased risk of death which presents major problems for long-term fibrogenesis experiments.
(§3) In Biological Examples 1-7, studies were performed in male C56BL/6J mice (9 weeks old). Mice were fed either choline-sufficient (CS) or choline deficient high-fat diets (31% total calories; “CDAA/high-fat”). The NASH inducing diet was instigated 6 weeks prior to the commencement of treatment in order to design the study as a treatment/reversal set-up rather than prophylaxis.
(§4) In Biological Examples 1-5, mice were divided into 6 experimental groups (n=9 per group) and fed either CS or CDAA/high-fat diets. After 6 weeks of either the CS- or CDAA diet, mice were orally administered Compound A or comparison Compound N, both at 2 doses, 0.15 mmol/kg bw/day (low-dose, LD) and 0.3 mmol/kg bw per day (high-dose, HD). The test substances were administered orally as admix to the high-fat diet. Hepatic fibrosis was assessed by both measurement of hydroxyproline (HYP) content and Sirius Red (SR) morphometry. Fibrosis, inflammation and metabolism related transcripts levels were measured by quantitative real-time polymerase chain reaction (qPCR).

[6] = system: Col1a1 mRNA; assay: Hepatic Col1a1 mRNA expression by qPCR, CDAA/high-fat diet mouse model; type: in vivo; details: CDAA/high-fat fed mice
Description: (§5) Mice were fed either choline-sufficient (CS) or choline deficient high-fat diets (31% total calories; “CDAA/high-fat”). The NASH inducing diet was instigated 6 weeks prior to the commencement of treatment in order to design the study as a treatment/reversal set-up rather than prophylaxis.
as §4, with “After” for “In Biological Examples 1-5, mice were divided into 6 experimental groups (n=9 per group) and fed either CS or CDAA/high-fat diets. After”
(§6) Studies were performed in male C56BL/6J mice (9 weeks old). Mice were divided into 6 experimental groups (n=9 per group) containing either CS or CDAA/high-fat diets, as described above. The NASH inducing CDAA/high fat diet was instigated 6 weeks prior to the commencement of treatment in order to assess treatment/reversal rather than prophylaxis. […] Compound A was administered orally as admix to the high-fat diet whilst GLP-1 agonist was delivered via intraperitoneal injection (i.p.). Fibrosis, inflammation and metabolism related transcripts levels were measured by quantitative real-time polymerase chain reaction (qPCR) in isolated liver tissue.

[7] = system: TNF-α mRNA; assay: Hepatic TNF-α mRNA expression by qPCR, CDAA/high-fat diet mouse model; type: in vivo; details: CDAA/high-fat fed mice
Description: as §5
as §4, with “After” for “In Biological Examples 1-5, mice were divided into 6 experimental groups (n=9 per group) and fed either CS or CDAA/high-fat diets. After”
as §6

[8] = system: CDAA/high-fat fed mice; assay: Hepatic lipidomic analysis, CDAA/high-fat diet mouse model; type: in vivo; details: Compound A 112 mg/kg bw per day or equimolar EPA, orally
Protocol: as §3
In Biological Example 7, after 6 weeks of either the CS or CDAA/high-fat diet, mice were administered 112 mg/kg bw per day of Compound A, or an equimolar dose of eicosapentaenoic acid (EPA), delivered orally. Hepatic lipidomic analysis was performed in isolated liver samples from CS (n=9), Compound A (n=9) and EPA (n=8) groups.
To further understand the effects of Compound A on hepatic lipid metabolism, lipidomic analysis of CS- and CDAA/high-fat fed mice (“CD”) was performed in isolated liver tissue.

[9] = Body weight, liver weight and food intake in ob/ob AMLN mice; type: in vivo, mouse
Protocol: (§7) Obese diet-induced B6.V-Lepob/Jrj mice (ob/ob) are consistently fibrosis (liver) prone when cholesterol (2%), 40% fat (containing 18% trans-fatty acids) and 20% fructose are added to a high-caloric diet (i.e., AMLN high-fat diet). ob/ob mice on AMLN diet (termed ‘ob/ob AMLN mice’) develop steatohepatitis and fibrosis within a shorter timeframe ([…]) compared with wild-type C57BL/6 mice (AMLN mice) fed the same diet. ob/ob AMLN mice provide an obese diet-induced model of NASH that also allows the study of effects on glycemic control. Development of NASH in the ob/ob AMLN model is confirmed by biopsy.
In Biological Examples 10-12, 15, and 19, studies were performed in male ob/ob mice (5 weeks old) fed an AMLN high-fat diet for 15 weeks, then randomized into 3 groups (n=10 per group) to receive either 112 mg/kg bw per day of Compound A via diet, 30 mg/kg bw per day pioglitazone via diet or no treatment (vehicle) for a further 4 weeks. An oral glucose tolerance test (OGTT) was performed at week 3. Hepatic fibrosis was assessed via measurements of hepatic fibrogenic/fibrolytic gene expression by RNA sequencing at 4 weeks.
(§8) In Biological Examples 10, 13-14, and 16-18, studies were performed in male ob/ob mice (5 weeks old) fed an AMLN high-fat diet for 18 weeks, then randomized into 6 groups (n=10 per group) to receive either Compound A (at 3 different daily doses, 45 mg/kg, 90 mg/kg or 135 mg/kg) via diet, 30 mg/kg bw per day obeticholic acid (OCA) via diet, or no treatment (vehicle) for a further 8 weeks. Assessment of NASH related parameters and fibrosis was made at study end by quantitative immune histochemistry (IHC) measurements.

[10] = system: STAM (model) mice; assay: Fibrosis area by Sirius Red staining, STAM model; type: in vivo, mouse; details: Sirius Red positive area, 6 weeks treatment, Compound A 37 mg/kg/day oral gavage
Description: (§9) In Biological Example 8, pathogen-free 15-day-pregnant C57BL/6 mice were obtained from Charles River Laboratories in Japan Inc. (Kanagawa, Japan). NASH was established in male mice by a single subcutaneous injection of streptozotocin (STZ) (Sigma, USA) after birth and feeding with a high fat diet (HFD; CLEA) Japan, Japan) ad libitum after 4 weeks of age (day 28±2). Mice were randomised into 3 groups of 8 mice at 6 weeks of age the day before the start of treatment: vehicle (saline), Compound A and telmisartan (positive control). Treatment with Compound A at a dose of 37 mg/kg bw per day via oral gavage in conjunction with a high-fat diet was given for 6 weeks before sacrifice. NAFLD activity score (NAS) was calculated according to standardised criteria and fibrosis area was assessed via Sirius Red staining.

[11] = system: STAM (model) mice; assay: NAFLD activity score (NAS) in streptozotocin/high-fat diet NASH model (STAM model); type: in vivo, mouse; details: 6 weeks treatment, Compound A 37 mg/kg/day oral gavage, telmisartan positive control
Description: as §9

[12] = system: ob/ob AMLN mice; assay: Plasma ALT and AST (hepatocellular damage) in ob/ob AMLN mice; type: in vivo, mouse; details: 8 weeks, OCA 30 mg/kg
Protocol: as §7, §8
To assess the effects of Compound A and pioglitazone on hepatocellular injury or damage in ob/ob AMLN mice, plasma alanine aminotransferase (ALT) and aspartate transaminase (AST) were measured after 8 weeks of administration.

[13] = system: col1A1; assay: Hepatic col1A1 content by quantitative IHC in ob/ob AMLN mice; type: in vivo, mouse; details: 8 weeks, OCA 30 mg/kg
Protocol: as §7, §8

[14] = system: α-smooth muscle actin (SMA); assay: Hepatic α-SMA content by quantitative IHC in ob/ob AMLN mice; type: in vivo, mouse; details: 8 weeks, OCA 30 mg/kg
Protocol: as §7, §8

[15] = 8 weeks, Compound A 45, 90 and 135 mg/kg, OCA 30 mg/kg bw per day

## CCCCCCCC/C=C\CCCCCCCC(=O)O [OA, oleic acid, reference compound]
[1]
  cell viability (MTS assay): neither Compound A nor OA showed a significant effect
[2]
  proliferation (BrdU incorporation): no effect

## CC/C=C\C/C=C\C/C=C\C/C=C\C/C=C\CCCCSC(CC)(CC)C(=O)O [Compound N, 2-ethyl-2-((5Z,8Z,11Z,14Z,17Z)-icosa-5,8,11,14,17-pentaenylthio)butanoic acid, reference compound]
[3]; APOE*3Leiden.CETP mice
  fibrosis (hydroxyproline/proline ratio): had efficacy in reducing fibrosis
[3]
  influx of inflammatory cells into the liver: prevented the influx of inflammatory cells into the liver
[4]
  Decrease in hypertrophy vs. control (%): 7%
  Hepatocellular hypertrophy: 42.9 ± 29.7
[5]; HD 0.3 mmol/kg bw per day orally as admix to diet
  Hydroxyproline (μg) content per 100 mg liver: 54 μg HYP/per 100 mg liver
[5]; LD 0.15 mmol/kg bw/day orally as admix to diet
  Hydroxyproline (μg) content per 100 mg liver: 48 μg HYP/per 100 mg liver
[5]; high dose (HD) 0.3 mmol/kg bw per day orally as admix to diet
  Hydroxyproline (μg) content per liver: 950 µg
[5]; low dose (LD) 0.15 mmol/kg bw/day orally as admix to diet
  Hydroxyproline (μg) content per liver: 1100 µg
[6]; HD 0.3 mmol/kg bw per day
  Col1a1 (relative mRNA expression): 16
[6]; LD 0.15 mmol/kg bw/day
  Col1a1 (relative mRNA expression): 15
[7]; HD 0.3 mmol/kg bw per day
  TNF-a (relative mRNA expression): 1.2
[7]; LD 0.15 mmol/kg bw/day
  TNF-a (relative mRNA expression): 1***

## CC/C=C\C/C=C\C/C=C\C/C=C\C/C=C\CCCC(=O)O [EPA, (5Z,8Z,11Z,14Z,17Z)-icosa-5,8,11,14,17-pentaenoic acid, reference compound]
[8]
  hepatic cholesteryl ester: did not reduce
  hepatic diglycerides (DG): did not reduce
  hepatic free fatty acids (FFA): did not reduce
  hepatic triglyceride (TG): did not reduce

## CCc1ccc(CCOc2ccc(CC3SC(=O)NC3=O)cc2)nc1 (stereo not drawn) [pioglitazone, reference compound]
[9]; 4 weeks, pioglitazone 30 mg/kg bw per day, p<0.01
  increase in bodyweight: 15%

## CCCc1nc2c(C)cc(-c3nc4ccccc4n3C)cc2n1Cc1ccc(-c2ccccc2C(=O)O)cc1 [Telmisartan, reference compound]
[10]
  Fibrosis area (%): 0.44%
[11]
  Hepatocellular ballooning: 0.8
  Lobular inflammation: 0.45
  NAS score (mean ± SD): 1.8 ± 0.8
  Steatosis: 0.7

## CC[C@H]1[C@@H](O)[C@@H]2[C@H](CC[C@]3(C)[C@@H]([C@H](C)CCC(=O)O)CC[C@@H]23)[C@@]2(C)CC[C@@H](O)C[C@@H]12 [OCA, reference compound]
[12]
  plasma ALT: no effect
  plasma AST: no effect
[13]
  total col1A1 content: no significant effect
[9]; [15]
  body weight: neither Compound A (45 mg/kg, 90 mg/kg, and 135 mg/kg) nor OCA significantly affected body weight
  food intake: not affected
[14]
  area percentage of α-SMA content compared to pre-treatment biopsy: no significant effect
